Data reported in publication PMC3961306, “Comparison of the Cancer Gene Targeting and Biochemical Selectivities of All Targeted Kinase Inhibitors Approved for Clinical Use” (PLoS ONE, 2014).

What was measured:
Assay in all cases: Kinase profiling in a biochemical assay panel (mobility shift assays and ELISA), %-inhibition at 1 μM; selectivity entropy
[1] = target: panel of more than 300 wild-type and mutant kinases (313 kinase panel) (Homo sapiens, UniProt P22607, K650M)
[2] = target: panel of more than 300 wild-type and mutant kinases (313 kinase panel) (Homo sapiens, UniProt P06239)
[3] = target: T1, panel of more than 300 wild-type and mutant kinases (313 kinase panel) (Homo sapiens, UniProt Q12866)
T1 sequence (Q12866 21-999): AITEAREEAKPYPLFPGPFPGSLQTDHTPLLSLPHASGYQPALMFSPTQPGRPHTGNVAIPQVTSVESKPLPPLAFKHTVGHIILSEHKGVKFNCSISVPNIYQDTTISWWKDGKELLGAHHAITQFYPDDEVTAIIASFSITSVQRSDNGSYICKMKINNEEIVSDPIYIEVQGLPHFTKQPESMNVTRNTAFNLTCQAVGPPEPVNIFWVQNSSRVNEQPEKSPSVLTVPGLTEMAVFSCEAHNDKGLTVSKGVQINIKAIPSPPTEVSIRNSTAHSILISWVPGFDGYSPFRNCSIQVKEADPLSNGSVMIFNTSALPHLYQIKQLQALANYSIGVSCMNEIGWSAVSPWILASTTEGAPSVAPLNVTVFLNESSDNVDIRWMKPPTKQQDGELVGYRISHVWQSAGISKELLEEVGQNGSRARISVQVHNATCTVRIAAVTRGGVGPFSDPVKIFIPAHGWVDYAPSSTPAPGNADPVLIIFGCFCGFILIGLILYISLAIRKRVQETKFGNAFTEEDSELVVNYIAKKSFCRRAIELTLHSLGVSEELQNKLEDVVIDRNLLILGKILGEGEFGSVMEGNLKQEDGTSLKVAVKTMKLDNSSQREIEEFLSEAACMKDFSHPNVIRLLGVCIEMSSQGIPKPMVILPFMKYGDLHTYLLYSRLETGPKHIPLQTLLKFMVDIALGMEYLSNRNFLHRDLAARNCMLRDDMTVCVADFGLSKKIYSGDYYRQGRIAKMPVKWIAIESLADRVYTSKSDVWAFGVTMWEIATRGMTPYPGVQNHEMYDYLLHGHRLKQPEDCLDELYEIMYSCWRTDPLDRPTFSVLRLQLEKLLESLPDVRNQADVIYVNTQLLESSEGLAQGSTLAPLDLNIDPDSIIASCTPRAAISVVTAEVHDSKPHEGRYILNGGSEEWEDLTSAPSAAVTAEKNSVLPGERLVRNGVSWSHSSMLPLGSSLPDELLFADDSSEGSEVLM

[4] = target: panel of more than 300 wild-type and mutant kinases (313 kinase panel) (Homo sapiens, UniProt P36507)
[5] = target: panel of more than 300 wild-type and mutant kinases (313 kinase panel) (Homo sapiens, UniProt P53350)
[6] = target: panel of more than 300 wild-type and mutant kinases (313 kinase panel) (Homo sapiens, UniProt Q9HC98)
[7] = target: panel of more than 300 wild-type and mutant kinases (313 kinase panel) (Homo sapiens, UniProt Q9H422)
[8] = target: panel of more than 300 wild-type and mutant kinases (313 kinase panel) (Homo sapiens, UniProt Q13177)
[9] = target: panel of more than 300 wild-type and mutant kinases (313 kinase panel) (Homo sapiens, UniProt Q8N568)
[10] = target: panel of more than 300 wild-type and mutant kinases (313 kinase panel) (Homo sapiens, UniProt Q13554)
[11] = target: panel of more than 300 wild-type and mutant kinases (313 kinase panel) (Homo sapiens, UniProt P07332)
[12] = target: panel of more than 300 wild-type and mutant kinases (313 kinase panel) (Homo sapiens, UniProt Q00526)
[13] = target: panel of more than 300 wild-type and mutant kinases (313 kinase panel) (Homo sapiens, UniProt P49761)
[14] = target: panel of more than 300 wild-type and mutant kinases (313 kinase panel) (Homo sapiens, UniProt P42336)
[15] = target: panel of more than 300 wild-type and mutant kinases (313 kinase panel) (Homo sapiens, UniProt P22455, V550L); conditions: kinase FGFR4(V550L); compound at 1 μM
[16] = kinase FGFR3(K650M), compound at 1 μM
[17] = kinase MAP2K2, compound at 1 μM
[18] = kinase DCAMKL2, compound at 1 μM
[19] = kinase CDK3/CycE1, 1 μM compound

Chain of panel of more than 300 wild-type and mutant kinases (313 kinase panel) (Homo sapiens, UniProt P06239) (P06239 whole entry, change not shown): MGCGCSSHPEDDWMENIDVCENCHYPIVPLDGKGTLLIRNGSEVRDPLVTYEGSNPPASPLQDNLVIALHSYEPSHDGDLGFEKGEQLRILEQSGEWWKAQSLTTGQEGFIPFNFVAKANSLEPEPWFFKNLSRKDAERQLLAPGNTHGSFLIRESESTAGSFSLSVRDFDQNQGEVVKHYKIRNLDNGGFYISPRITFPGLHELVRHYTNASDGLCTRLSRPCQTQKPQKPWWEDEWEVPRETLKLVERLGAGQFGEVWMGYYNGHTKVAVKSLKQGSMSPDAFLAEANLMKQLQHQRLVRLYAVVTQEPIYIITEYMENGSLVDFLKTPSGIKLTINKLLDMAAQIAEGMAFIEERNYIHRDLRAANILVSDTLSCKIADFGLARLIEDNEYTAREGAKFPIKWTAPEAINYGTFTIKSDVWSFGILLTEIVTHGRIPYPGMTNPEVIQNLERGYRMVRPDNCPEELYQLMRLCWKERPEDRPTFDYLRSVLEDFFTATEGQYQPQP
Chain of panel of more than 300 wild-type and mutant kinases (313 kinase panel) (Homo sapiens, UniProt Q13554) (Q13554 whole entry, change not shown): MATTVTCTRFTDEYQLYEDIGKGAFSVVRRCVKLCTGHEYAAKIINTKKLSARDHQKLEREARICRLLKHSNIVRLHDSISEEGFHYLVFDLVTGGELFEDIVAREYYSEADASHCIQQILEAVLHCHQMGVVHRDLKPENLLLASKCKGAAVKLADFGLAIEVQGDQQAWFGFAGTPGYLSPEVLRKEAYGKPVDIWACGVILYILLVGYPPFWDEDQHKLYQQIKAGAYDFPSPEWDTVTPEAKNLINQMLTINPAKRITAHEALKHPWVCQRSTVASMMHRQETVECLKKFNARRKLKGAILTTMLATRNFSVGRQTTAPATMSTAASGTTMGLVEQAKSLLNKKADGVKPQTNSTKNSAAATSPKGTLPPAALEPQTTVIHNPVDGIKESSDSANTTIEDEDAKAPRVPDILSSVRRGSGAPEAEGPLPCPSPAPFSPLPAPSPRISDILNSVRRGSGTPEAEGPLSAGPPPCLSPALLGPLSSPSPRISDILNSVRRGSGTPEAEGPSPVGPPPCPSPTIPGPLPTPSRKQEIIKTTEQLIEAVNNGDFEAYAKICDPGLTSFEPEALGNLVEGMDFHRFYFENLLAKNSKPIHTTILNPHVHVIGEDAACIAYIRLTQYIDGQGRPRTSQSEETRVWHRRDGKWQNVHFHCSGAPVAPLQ
Chain of panel of more than 300 wild-type and mutant kinases (313 kinase panel) (Homo sapiens, UniProt P49761) (P49761 whole entry, change not shown): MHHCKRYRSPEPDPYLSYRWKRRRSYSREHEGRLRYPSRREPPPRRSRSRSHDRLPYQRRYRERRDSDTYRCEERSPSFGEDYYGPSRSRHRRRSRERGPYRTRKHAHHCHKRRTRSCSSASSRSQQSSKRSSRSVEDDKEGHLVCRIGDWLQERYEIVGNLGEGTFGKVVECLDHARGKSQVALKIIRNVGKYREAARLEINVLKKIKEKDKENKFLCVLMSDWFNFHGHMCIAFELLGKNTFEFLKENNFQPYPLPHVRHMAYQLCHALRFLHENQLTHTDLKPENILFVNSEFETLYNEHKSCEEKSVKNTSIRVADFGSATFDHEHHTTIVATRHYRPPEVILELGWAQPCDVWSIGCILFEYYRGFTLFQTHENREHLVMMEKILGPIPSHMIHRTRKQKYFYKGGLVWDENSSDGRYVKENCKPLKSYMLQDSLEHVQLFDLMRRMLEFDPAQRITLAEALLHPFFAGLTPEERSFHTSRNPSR
Chain of panel of more than 300 wild-type and mutant kinases (313 kinase panel) (Homo sapiens, UniProt Q00526) (Q00526 whole entry, change not shown): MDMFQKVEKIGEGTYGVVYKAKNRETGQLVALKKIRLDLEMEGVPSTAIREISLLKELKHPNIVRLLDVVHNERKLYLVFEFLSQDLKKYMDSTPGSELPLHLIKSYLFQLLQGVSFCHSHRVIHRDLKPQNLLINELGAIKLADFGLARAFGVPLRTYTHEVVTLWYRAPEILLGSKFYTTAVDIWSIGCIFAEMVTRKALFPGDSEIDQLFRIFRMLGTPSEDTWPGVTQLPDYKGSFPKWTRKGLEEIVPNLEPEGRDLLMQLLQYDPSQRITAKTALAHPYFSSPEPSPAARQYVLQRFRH
Chain of panel of more than 300 wild-type and mutant kinases (313 kinase panel) (Homo sapiens, UniProt P22607, K650M) (P22607 23-806 K650M): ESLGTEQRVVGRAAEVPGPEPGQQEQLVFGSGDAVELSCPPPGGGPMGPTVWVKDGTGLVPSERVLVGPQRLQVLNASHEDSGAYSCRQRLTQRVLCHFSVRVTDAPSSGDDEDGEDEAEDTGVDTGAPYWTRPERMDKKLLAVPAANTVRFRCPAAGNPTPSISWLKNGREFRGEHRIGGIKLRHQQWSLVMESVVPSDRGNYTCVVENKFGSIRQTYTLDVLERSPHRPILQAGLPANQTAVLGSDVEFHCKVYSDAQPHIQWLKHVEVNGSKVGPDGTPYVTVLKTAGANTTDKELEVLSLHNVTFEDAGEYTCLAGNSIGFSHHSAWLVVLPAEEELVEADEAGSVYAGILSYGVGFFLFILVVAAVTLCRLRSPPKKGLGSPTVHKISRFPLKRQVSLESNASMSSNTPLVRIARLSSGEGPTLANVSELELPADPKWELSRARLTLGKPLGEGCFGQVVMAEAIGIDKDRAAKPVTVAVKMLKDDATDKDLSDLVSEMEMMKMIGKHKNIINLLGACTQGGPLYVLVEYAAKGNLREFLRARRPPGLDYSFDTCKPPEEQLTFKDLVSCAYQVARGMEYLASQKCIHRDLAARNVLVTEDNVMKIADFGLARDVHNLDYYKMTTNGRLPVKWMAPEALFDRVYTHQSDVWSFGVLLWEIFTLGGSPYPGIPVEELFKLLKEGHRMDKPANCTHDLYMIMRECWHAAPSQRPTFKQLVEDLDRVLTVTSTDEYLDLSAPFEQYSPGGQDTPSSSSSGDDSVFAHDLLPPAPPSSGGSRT
Chain of panel of more than 300 wild-type and mutant kinases (313 kinase panel) (Homo sapiens, UniProt P22455, V550L) (P22455 22-802 V550L): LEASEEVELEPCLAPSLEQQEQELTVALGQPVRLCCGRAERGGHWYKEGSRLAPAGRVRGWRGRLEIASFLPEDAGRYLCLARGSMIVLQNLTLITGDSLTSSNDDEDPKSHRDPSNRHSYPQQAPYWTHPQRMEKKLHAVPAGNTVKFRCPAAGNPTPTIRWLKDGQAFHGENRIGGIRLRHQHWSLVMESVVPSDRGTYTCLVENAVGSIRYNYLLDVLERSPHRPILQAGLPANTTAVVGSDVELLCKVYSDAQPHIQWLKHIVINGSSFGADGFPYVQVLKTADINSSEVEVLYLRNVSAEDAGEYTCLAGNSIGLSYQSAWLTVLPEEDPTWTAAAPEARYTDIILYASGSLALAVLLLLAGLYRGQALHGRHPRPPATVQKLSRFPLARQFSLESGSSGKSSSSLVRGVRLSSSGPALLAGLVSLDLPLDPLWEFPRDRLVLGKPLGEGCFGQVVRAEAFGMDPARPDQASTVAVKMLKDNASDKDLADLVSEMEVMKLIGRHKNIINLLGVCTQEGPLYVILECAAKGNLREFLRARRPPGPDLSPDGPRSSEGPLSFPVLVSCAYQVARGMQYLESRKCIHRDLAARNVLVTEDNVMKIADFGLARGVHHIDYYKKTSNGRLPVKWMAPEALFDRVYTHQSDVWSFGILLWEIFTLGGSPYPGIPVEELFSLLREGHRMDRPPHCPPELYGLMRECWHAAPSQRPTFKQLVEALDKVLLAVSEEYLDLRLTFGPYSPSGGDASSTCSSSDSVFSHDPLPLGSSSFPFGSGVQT

CCN(CC)CCNC(=O)c1c(C)[nH]c(/C=C2\C(=O)Nc3ccc(F)cc32)c1C [sunitinib]
%-inhibition of FGFR3(K650M) [1, 16]: 97%

O=S(=O)(c1cccc2cnccc12)N1CCCNCC1 [fasudil]
%-inhibition of LCK ([2]; kinase LCK, compound at 1 μM): -7.52% | %-inhibition of MER ([3]; kinase MER, compound at 1 μM): -2.34% | %-inhibition of MAP2K2 [4, 17]: 13% | %-inhibition of PLK1 ([5]; kinase PLK1, 1 μM): -8.49% | %-inhibition of FGFR3(K650M) [1, 16]: -0.618% | %-inhibition of NEK6 ([6]; kinase NEK6, 1 μM): -2.46% | %-inhibition of HIPK3 ([7]; kinase HIPK3, compound at 1 μM): -0.764% | %-inhibition of PAK2 ([8]; kinase PAK2, 1 μM): -16% | %-inhibition of DCAMKL2 [9, 18]: -2% | %-inhibition, CaMK2β ([10]; kinase CaMK2β, 1 μM compound): 2.58% | %-inhibition of FES ([11]; kinase FES, compound at 1 μM): -3.78% | %-inhibition, CDK3/CycE1 [12, 19]: 24% | %-inhibition of CLK3 ([13]; kinase CLK3, compound at 1 μM): -0.753% | %-inhibition of PIK3CA/PIK3R1 ([14]; kinase PIK3CA/PIK3R1, 1 μM): -7%

COc1cc2c(Nc3ccc(Br)cc3F)ncnc2cc1OCC1CCN(C)CC1 [vandetanib]
%-inhibition of MER ([3]; kinase MER, compound at 1 μM): 45% | %-inhibition of FGFR4(V550L) [15]: -4.72% | %-inhibition of PLK1 ([5]; kinase PLK1, 1 μM): -3.6% | %-inhibition of NEK6 ([6]; kinase NEK6, 1 μM): -4.3% | %-inhibition of HIPK3 ([7]; kinase HIPK3, compound at 1 μM): -11% | %-inhibition of PAK2 ([8]; kinase PAK2, 1 μM): -2% | %-inhibition of DCAMKL2 [9, 18]: -5% | %-inhibition, CaMK2β ([10]; kinase CaMK2β, 1 μM compound): -4.23% | %-inhibition of FES ([11]; kinase FES, compound at 1 μM): -3.7% | %-inhibition, CDK3/CycE1 [12, 19]: -13% | %-inhibition of CLK3 ([13]; kinase CLK3, compound at 1 μM): -15% | %-inhibition of PIK3CA/PIK3R1 ([14]; kinase PIK3CA/PIK3R1, 1 μM): 23%

C#Cc1cccc(Nc2ncnc3cc(OCCOC)c(OCCOC)cc23)c1 [erlotinib]
%-inhibition of MER ([3]; 1 µM): 10% | %-inhibition of MAP2K2 ([4]; 1 µM): 8% | %-inhibition of PLK1 ([5]; 1 µM): -10% | %-inhibition of FGFR3(K650M) ([1]; 1 µM): 87% | %-inhibition of NEK6 ([6]; 1 µM): 2% | %-inhibition of HIPK3 ([7]; 1 µM): 10% | %-inhibition of PAK2 ([8]; 1 µM): 5% | %-inhibition of DCAMKL2 ([9]; 1 µM): 5% | %-inhibition, CaMK2β ([10]; 1 µM): -6% | %-inhibition of FES ([11]; 1 µM): 8.5% | %-inhibition, CDK3/CycE1 ([12]; 1 µM): 7% | %-inhibition of CLK3 ([13]; 1 µM): -0.469% | %-inhibition of PIK3CA/PIK3R1 ([14]; 1 µM): 11%

Cc1ccc(C(=O)Nc2ccc(CN3CCN(C)CC3)c(C(F)(F)F)c2)cc1C#Cc1cnc2cccnn12 [ponatinib]
%-inhibition of LCK ([2]; kinase LCK, compound at 1 μM): 103% | %-inhibition of FGFR4(V550L) [15]: 20% | %-inhibition of PLK1 ([5]; kinase PLK1, 1 μM): -6% | %-inhibition of FGFR3(K650M) [1, 16]: 100% | %-inhibition of NEK6 ([6]; kinase NEK6, 1 μM): -10% | %-inhibition of HIPK3 ([7]; kinase HIPK3, compound at 1 μM): 27% | %-inhibition of DCAMKL2 [9, 18]: -3.72% | %-inhibition, CDK3/CycE1 [12, 19]: 20% | %-inhibition of PIK3CA/PIK3R1 ([14]; kinase PIK3CA/PIK3R1, 1 μM): 45%

Cc1ccc(Nc2nccc(N(C)c3ccc4c(C)n(C)nc4c3)n2)cc1S(N)(=O)=O [pazopanib]
%-inhibition of LCK ([2]; kinase LCK, compound at 1 μM): 73% | %-inhibition of MER ([3]; kinase MER, compound at 1 μM): 34% | %-inhibition of MAP2K2 [4, 17]: 1.87% | %-inhibition of PLK1 ([5]; kinase PLK1, 1 μM): 1.15% | %-inhibition of NEK6 ([6]; kinase NEK6, 1 μM): -3% | %-inhibition of HIPK3 ([7]; kinase HIPK3, compound at 1 μM): 3% | %-inhibition of PAK2 ([8]; kinase PAK2, 1 μM): 3.51% | %-inhibition of DCAMKL2 [9, 18]: -2.72% | %-inhibition, CaMK2β ([10]; kinase CaMK2β, 1 μM compound): -2.29% | %-inhibition, CDK3/CycE1 [12, 19]: 0.931% | %-inhibition of CLK3 ([13]; kinase CLK3, compound at 1 μM): 0.791% | %-inhibition of PIK3CA/PIK3R1 ([14]; kinase PIK3CA/PIK3R1, 1 μM): 45%

Cc1cn(-c2cc(NC(=O)c3ccc(C)c(Nc4nccc(-c5cccnc5)n4)c3)cc(C(F)(F)F)c2)cn1 [nilotinib]
%-inhibition of LCK ([2]; 1 µM): 90% | %-inhibition of MER ([3]; kinase MER, compound at 1 μM): -46% | %-inhibition of MAP2K2 [4, 17]: -12% | %-inhibition of PLK1 ([5]; kinase PLK1, 1 μM): -2.41% | %-inhibition of FGFR3(K650M) [1, 16]: -21% | %-inhibition of NEK6 ([6]; kinase NEK6, 1 μM): 1% | %-inhibition of HIPK3 ([7]; kinase HIPK3, compound at 1 μM): 12% | %-inhibition of PAK2 ([8]; 1 µM): -40% | %-inhibition of DCAMKL2 [9, 18]: -17% | %-inhibition, CaMK2β ([10]; 1 µM): -21% | %-inhibition of FES ([11]; kinase FES, compound at 1 μM): -19% | %-inhibition, CDK3/CycE1 [12, 19]: -1.6% | %-inhibition of CLK3 ([13]; kinase CLK3, compound at 1 μM): -10% | %-inhibition of PIK3CA/PIK3R1 ([14]; kinase PIK3CA/PIK3R1, 1 μM): 16%

Cc1nc(Nc2ncc(C(=O)Nc3c(C)cccc3Cl)s2)cc(N2CCN(CCO)CC2)n1 [dasatinib]
%-inhibition of PAK2 ([8]; kinase PAK2, 1 μM): 0.254% | %-inhibition of DCAMKL2 [9, 18]: 2% | %-inhibition, CaMK2β ([10]; kinase CaMK2β, 1 μM compound): -6% | %-inhibition, CDK3/CycE1 [12, 19]: 2.27% | %-inhibition of CLK3 ([13]; kinase CLK3, compound at 1 μM): 0.469%

CS(=O)(=O)CCNCc1ccc(-c2ccc3ncnc(Nc4ccc(OCc5cccc(F)c5)c(Cl)c4)c3c2)o1 [lapatinib]
%-inhibition of LCK ([2]; kinase LCK, compound at 1 μM): 12% | %-inhibition of MER ([3]; kinase MER, compound at 1 μM): 6% | %-inhibition of MAP2K2 [4, 17]: 6% | %-inhibition of PLK1 ([5]; 1 µM): -2.71% | %-inhibition of FGFR3(K650M) [1, 16]: 1.23% | %-inhibition of NEK6 ([6]; kinase NEK6, 1 μM): -4.3% | %-inhibition of HIPK3 ([7]; kinase HIPK3, compound at 1 μM): 0.236% | %-inhibition of PAK2 ([8]; kinase PAK2, 1 μM): 7% | %-inhibition of DCAMKL2 [9, 18]: 7% | %-inhibition, CaMK2β ([10]; 1 µM): -5% | %-inhibition of FES ([11]; kinase FES, compound at 1 μM): 5% | %-inhibition, CDK3/CycE1 [12, 19]: 2.84% | %-inhibition of CLK3 ([13]; kinase CLK3, compound at 1 μM): 0.469% | %-inhibition of PIK3CA/PIK3R1 ([14]; 1 µM): -9%
